The record followed here is PMC2467525 (Acta Crystallographica Section D: Biological Crystallography, 2008).

The target in the assay is PvlArgDC (pyruvoyl-dependent arginine decarboxylase) (Methanocaldococcus jannaschii, UniProt Q57764). Kind of assay: X-ray crystal structure, […] A. Type of assay: binding. As to conditions: cocrystallized with 1-2 mM arginine, pH 6.7-7.3, 295 K; agmatine in all six active sites.
Sequence of PvlArgDC (pyruvoyl-dependent arginine decarboxylase) (Q57764 53-165): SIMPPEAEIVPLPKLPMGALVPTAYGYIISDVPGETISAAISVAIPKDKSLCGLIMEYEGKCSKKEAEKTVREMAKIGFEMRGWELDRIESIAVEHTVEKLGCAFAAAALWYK
Sequence of PvlArgDC (pyruvoyl-dependent arginine decarboxylase) (Q57764 1-52): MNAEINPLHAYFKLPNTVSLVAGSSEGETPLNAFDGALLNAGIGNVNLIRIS

As for `N=C(N)NCCCCN` [agmatine], the “X-ray crystal structure, 2.0 A” value was “all six protomers were fully processed and contained the product agmatine at the active site”.
